Like-named read-outs stand apart in the source and are kept apart here.
Assays:
[1] = test system: HCV replicon in HUH-7 cells; experiment: HCV replicon assay (FRET, confirmed in the luciferase reporter assay); format: cell-based; settings: Hepatitis C virus, 96 h, 4 days
Text: An HCV replicon whole cell system was established as described by Lohmann V, Korner F, Koch J, Herian U, Theilmann L, Bartenschlager R., Science 285(5424):110-3 (1999). This system enabled us to evaluate the effects of our HCV Protease compounds on HCV RNA replication. Briefly, using the HCV strain 1b sequence described in the Lohmann paper (Assession number: AJ238799), an HCV cDNA was synthesized by Operon Technologies, Inc. (Alameda, Calif.), and the full-length replicon was then assembled in plasmid pGem9zf(+) (Promega, Madison, Wis.) using standard molecular biology techniques. The replicon consists of (i) the HCV 5′ UTR fused to the first 12 amino acids of the capsid protein, (ii) the neomycin phosphotransferase gene (neo), (iii) the IRES from encephalomyocarditis virus (EMCV), and (iv) HCV NS3. to NS5B genes and the HCV 3′ UTR. Plasmid DNAs were linearized with Seal and RNA transcripts were synthesized in vitro using the T7 MegaScript transcription kit (Ambion, Austin, Tex.) according to manufacturer's directions. In vitro transcripts of the cDNA were transfected into the human hepatoma cell line, HUH-7. […] Resulting cell lines were characterized for positive and negative strand RNA production and protein production over time.
The HCV replicon FRET assay was developed to monitor the inhibitory effects of compounds described in the disclosure on HCV viral replication. HUH-7 cells, constitutively expressing the HCV replicon, were grown in Dulbecco's Modified Eagle Media (DMEM) (Gibco-BRL) containing 10% Fetal calf serum (FCS) (Sigma) and 1 mg/ml G418 (Gibco-BRL). Cells were seeded the night before (1.5×10^4 cells/well) in 96-well tissue-culture sterile plates. Compound and no compound controls were prepared in DMEM containing 4% FCS, 1:100 Penicillin/Streptomysin (Gibco-BRL), 1:100 L-glutamine and 5% DMSO in the dilution plate (0.5% DMSO final concentration in the assay). Compound/DMSO mixes were added to the cells and incubated for 4 days at 37° C. After 4 days, cells were first assessed for cytotoxicity using alamar Blue (Trek Diagnotstic Systems) for a CC50 reading. The toxicity of compound (CC50) was determined by adding 1/10th volume of alamar Blue to the media incubating the cells. After 4 h, the fluorescence signal from each well was read, with an excitation wavelength at 530 nm and an emission wavelength of 580 nm, using the Cytofluor Series 4000 (Perspective Biosystems). Plates were then rinsed thoroughly with Phosphate-Buffered Saline (PBS) (3 times 150 μl).
As a secondary assay, EC50 determinations from the replicon FRET assay were confirmed in a replicon luciferase reporter assay. Utilization of a replicon luciferase reporter assay was first described by Krieger et al (Krieger N, Lohmann V, and Bartenschlager R, J. Virol. 75(10):4614-4624 (2001)). The replicon construct described for our FRET assay was modified by inserting cDNA encoding a humanized form of the Renilla luciferase gene and a linker sequence fused directly to the 3′-end of the luciferase gene. This insert was introduced into the replicon construct using an Ascl restriction site located in core, directly upstream of the neomycin marker gene. The adaptive mutation at position 1179 (serine to isoleucine) was also introduced (Blight K J, Kolykhalov, A A, Rice, C M, Science 290(5498):1972-1974). A stable cell line constitutively expressing this HCV replicon construct was generated as described above. The luciferase reporter assay was set up as described for the HCV replicon FRET assay with the following modifications. Following 4 days in a 37° C./5% CO2 incubator, cells were analyzed for Renilla Luciferase activity using the Promega Dual-Glo Luciferase Assay System. Media (100 μl) was removed from each well containing cells. To the remaining 50 μl of media, 50 μl of Dual-Glo Luciferase Reagent was added, and plates rocked for 10 min to 2 h at room temperature. […]

[2] = target: T1, HCV NS3/4A protease complex (Hepatitis C virus genotype 1a, UniProt P27958, C1454S/C1711G); experiment: FRET peptide assay to monitor HCV NS3/4A proteolytic activity; format: biochemical; settings: HCV NS3/4A protease complex, strain not stated, read-out: IC50
T1 construct: recombinant HCV NS3/4A protease complex (amino acids 1027 to 1711); inferred from the pET21b vector and Ni-NTA purification; made in house; host or cells: Escherichia coli BL21 (DE3)
Text: HCV NS3 protease complexes, derived from the BMS strain, H77 strain or J4L6S strain, were generated, as described below. These purified recombinant proteins were generated for use in a homogeneous assay (see below) to provide an indication of how effective compounds of the present disclosure would be in inhibiting HCV NS3 proteolytic activity.
The H77 and J4L6S strains were used for production of recombinant NS3/4A protease complexes. DNA encoding the recombinant HCV NS3/4A protease complex (amino acids 1027 to 1711) for these strains was manipulated as described by P. Gallinari et al. (see Gallinari P, Paolini C, Brennan D, Nardi C, Steinkuhler C, De Francesco R. Biochemistry. 38(17):5620-32, (1999)). Briefly, a three-lysine solubilizing tail was added at the 3′-end of the NS4A coding region. The cysteine in the P1 position of the NS4A-NS4B cleavage site (amino acid 1711) was changed to a glycine to avoid the proteolytic cleavage of the lysine tag. Furthermore, a cysteine to serine mutation was introduced by PCR at amino acid position 1454 to prevent the autolytic cleavage in the NS3 helicase domain. The variant DNA fragment was cloned in the pET21b bacterial expression vector (Novagen) and the NS3/4A complex was expressed in Escherichia coli strain BL21 (DE3) (Invitrogen) following the protocol described by P. Gallinari et al. (see Gallinari P, Brennan D, Nardi C, Brunetti M, Tomei L, Steinkuhler C, De Francesco R., J Virol. 72(8):6758-69 (1998)) with modifications. Briefly, the NS3/4A protease complex expression was induced with 0.5 millimolar (mM) Isopropyl β-D-1-thiogalactopyranoside (IPTG) for 22 hours (h) at 20° C. A typical fermentation (1 Liter (L)) yielded approximately 10 grams (g) of wet cell paste. The cells were resuspended in lysis buffer (10 mL/g) consisting of 25 mM N-(2-Hydroxyethyl)Piperazine-N′-(2-Ethane Sulfonic acid) (HEPES), pH 7.5, 20% glycerol, 500 mM Sodium Chloride (NaCl), 0.5% Triton X-100, 1 microgram/milliliter (“μg/mL”) lysozyme, 5 mM Magnesium Chloride (MgCl2), 1 μg/ml DnaseI, 5 mM β-Mercaptoethanol (βME), Protease inhibitor-Ethylenediamine Tetraacetic acid (EDTA) free (Roche), homogenized and incubated for 20 minutes (min) at 4° C. The homogenate was sonicated and clarified by ultra-centrifugation at 235000 g for 1 hour (h) at 4° C. Imidazole was added to the supernatant to a final concentration of 15 mM and the pH adjusted to 8.0. The crude protein extract was loaded on a Nickel-Nitrilotriacetic acid (Ni-NTA) column pre-equilibrated with buffer B (25 mM HEPES, pH 8.0, 20% glycerol, 500 mM NaCl, 0.5% Triton X-100, 15 mM imidazole, 5 mM βME). The sample was loaded at a flow rate of 1 ml/min. The column was washed with 15 column volumes of buffer C (same as buffer B except with 0.2% Triton X-100). The protein was eluted with 5 column volumes of buffer D (same as buffer C except with 200 mM Imidazole).
NS3/4A protease complex-containing fractions were pooled and loaded on a desalting column Superdex-S200 pre-equilibrated with buffer D (25mM HEPES, pH 7.5, 20% glycerol, 300 mM NaCl, 0.2% Triton X-100, 10 mM βME). Sample was loaded at a flow rate of 1 mL/min. NS3/4A protease complex-containing fractions were pooled and concentrated to approximately 0.5 mg/ml. The purity of the NS3/4A protease complexes, derived from the BMS, H77 and J4L6S strains, were judged to be greater than 90% by SDS-PAGE and mass spectrometry analyses. The enzyme was stored at −80° C., thawed on ice and diluted prior to use in assay buffer.
The purpose of this in vitro assay was to measure the inhibition of HCV NS3 protease complexes, derived from the BMS strain, H77 strain or J4L6S strain, as described above, by compounds of the present disclosure. This assay provides an indication of how effective compounds of the present disclosure would be in inhibiting HCV NS3 proteolytic activity.
In order to monitor HCV NS3/4A protease activity, an NS3/4A peptide substrate was used. […]

T1 sequence (P27958 1027-1711 C1454S/C1711G, one chain of several): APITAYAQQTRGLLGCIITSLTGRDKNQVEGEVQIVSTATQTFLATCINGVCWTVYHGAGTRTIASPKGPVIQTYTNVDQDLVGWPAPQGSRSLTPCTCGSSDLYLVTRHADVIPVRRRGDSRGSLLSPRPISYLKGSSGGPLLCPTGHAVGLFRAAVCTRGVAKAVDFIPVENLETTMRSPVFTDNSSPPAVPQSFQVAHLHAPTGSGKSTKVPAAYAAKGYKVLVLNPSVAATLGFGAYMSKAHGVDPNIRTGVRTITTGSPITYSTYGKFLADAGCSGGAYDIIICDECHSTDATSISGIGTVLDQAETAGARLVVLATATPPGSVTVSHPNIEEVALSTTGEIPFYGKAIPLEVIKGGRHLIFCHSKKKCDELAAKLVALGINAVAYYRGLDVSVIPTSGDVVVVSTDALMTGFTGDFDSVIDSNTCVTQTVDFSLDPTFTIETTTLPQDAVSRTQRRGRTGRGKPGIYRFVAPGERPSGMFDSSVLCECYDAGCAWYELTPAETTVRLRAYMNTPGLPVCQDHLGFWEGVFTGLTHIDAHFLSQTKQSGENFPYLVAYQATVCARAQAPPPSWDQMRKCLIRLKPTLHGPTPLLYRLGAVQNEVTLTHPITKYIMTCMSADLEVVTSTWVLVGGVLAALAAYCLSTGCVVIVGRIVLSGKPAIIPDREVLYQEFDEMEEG

| SMILES | EC50 ([1]; numeric values) [nM] | IC50 ([2]; numeric values) [nM] | EC50 ([1]; class symbols) [nM] | IC50 ([2]; class symbols) [nM] |
| --- | --- | --- | --- | --- |
| C=C[C@@H]1C[C@]1(NC(=O)[C@@H]1C[C@]2(OC)CN1C(=O)[C@H](C(C)(C)C)NC(=O)OCC/C=C\c1cc3cc2ccc3cc1OC)C(=O)NS(=O)(=O)C1CC1 [Example 1] | 120 | 31 | – | – |
| C=C[C@@H]1C[C@]1(NC(=O)[C@@H]1C[C@]2(OC)CN1C(=O)[C@H](C(C)(C)C)NC(=O)OCCC/C=C\c1cc3cc2ccc3cc1OC)C(=O)NS(=O)(=O)C1CC1 [Example 4] | – | – | 1 to 10 | 1 to 10 |
| C=C[C@@H]1C[C@]1(NC(=O)[C@@H]1C[C@]2(OC)CN1C(=O)[C@H](C(C)(C)C)NC(=O)OCCCCC=Cc1cc3cc2ccc3cc1OC)C(=O)NS(=O)(=O)C1CC1 [Example 7] | – | – | 1 to 10 | 1 to 10 |
| C=C[C@@H]1C[C@]1(NC(=O)[C@@H]1C[C@]2(OC)CN1C(=O)[C@H](C(C)(C)C)NC(=O)OCC(C)(C)C/C=C\c1cc3cc2ccc3cc1OC)C(=O)NS(=O)(=O)C1CC1 [Example 8] | – | – | 1 to 10 | 1 to 10 |
| C=C[C@@H]1C[C@]1(NC(=O)[C@@H]1C[C@]2(OC)CN1C(=O)[C@H](C(C)(C)C)NC(=O)OCC(C)(C)CCCc1cc3cc2ccc3cc1OC)C(=O)NS(=O)(=O)C1CC1 [Example 9] | – | – | 1 to 10 | 1 to 10 |
| COc1cc2ccc3cc2cc1CCCC(C)(C)COC(=O)N[C@@H](C(C)(C)C)C(=O)N1C[C@@]3(OC)C[C@H]1C(=O)N[C@]1(C(=O)NS(=O)(=O)C2CC2)C[C@H]1C1CC1 [Example 10] | – | – | 21 to 150 | 11 to 12 |
| COc1cc2ccc3cc2cc1CCCC(C)(C)COC(=O)N[C@@H](C(C)(C)C)C(=O)N1C[C@@]3(OC)C[C@H]1C(=O)N[C@]1(C(=O)NS(=O)(=O)C2CC2)C[C@H]1C(F)F [Example 11] | – | – | 11 to 20 | 1 to 10 |
| C=C[C@@H]1C[C@]1(NC(=O)[C@@H]1C[C@]2(OC)CN1C(=O)[C@H](C(C)(C)C)NC(=O)OCCCCCCc1cc3cc2ccc3cc1OC)C(=O)NS(=O)(=O)C1CC1 [Example 12] | 2.84 | 1 | – | – |
| COc1cc2ccc3cc2cc1CCCCCCOC(=O)N[C@@H](C(C)(C)C)C(=O)N1C[C@@]3(OC)C[C@H]1C(=O)N[C@]1(C(=O)NS(=O)(=O)C2CC2)C[C@H]1C1CC1 [Example 13] | – | – | 11 to 20 | 1 to 10 |
| C=C[C@@H]1C[C@]1(NC(=O)[C@@H]1C[C@]2(OC)CN1C(=O)[C@H](C(C)(C)C)NC(=O)OCC(C)(C)CCCCc1cc3cc2ccc3cc1OC)C(=O)NS(=O)(=O)C1CC1 [Example 14] | – | – | 1 to 10 | 1 to 10 |
| COc1cc2ccc3cc2cc1CCCCC(C)(C)COC(=O)N[C@@H](C(C)(C)C)C(=O)N1C[C@@]3(OC)C[C@H]1C(=O)N[C@]1(C(=O)NS(=O)(=O)C2CC2)C[C@H]1C1CC1 [Example 15] | – | – | 1 to 10 | 1 to 10 |
| CC[C@@H]1C[C@]1(NC(=O)[C@@H]1C[C@]2(OC)CN1C(=O)[C@H](C(C)(C)C)NC(=O)OCC(C)(C)CCCCc1cc3cc2ccc3cc1OC)C(=O)NS(=O)(=O)C1CC1 [Example 16] | – | – | 21 to 150 | 11 to 12 |
| C=C[C@@H]1C[C@]1(NC(=O)[C@@H]1C[C@]2(OC)CN1C(=O)[C@H](C(C)(C)C)NC(=O)OCCC(C)(C)CCCc1cc3cc2ccc3cc1OC)C(=O)NS(=O)(=O)C1CC1 [Example 17] | – | – | 1 to 10 | 1 to 10 |
| COc1cc2ccc3cc2cc1CCCC(C)(C)CCOC(=O)N[C@@H](C(C)(C)C)C(=O)N1C[C@@]3(OC)C[C@H]1C(=O)N[C@]1(C(=O)NS(=O)(=O)C2CC2)C[C@H]1C(F)F [Example 18] | – | – | 1 to 10 | 1 to 10 |
| COc1cc2ccc3cc2cc1CCCC(C)(C)CCOC(=O)N[C@@H](C(C)(C)C)C(=O)N1C[C@@]3(OC)C[C@H]1C(=O)N[C@]1(C(=O)NS(=O)(=O)C2CC2)C[C@H]1C1CC1 [Example 19] | – | – | 1 to 10 | 1 to 10 |

— US20100080770A1, “Hepatitis C Virus Inhibitors” (priority 2008, published 2010)
